Data: patent publication US7129198B1, “Use of benzotriazole UV absorbers” (Ciba Specialty Chemicals Corporation, priority 1999, dated 2006)

Columns and labels:
Experiment in all cases: MIC in microtitre plates
Format in all cases: cell-based
[1] = system: Candida albicans ATCC 10259; settings: ATCC10259, 48 hours at 37° C., ≦20% growth
Experimental: (§1) Mycological slant agar for the preculture of moulds. The test substances are predissolved in dimethyl sulfoxide (DMSO) and tested in a dilution series of 1:2. The test organisms are cultured overnight in CASO bouillon and rinsed off with 10 ml of 0.85% sodium chloride solution (+0.1% TritonX-100). The test organisms are adjusted to an organism count of 1–5×10^6 CFU/ml with 0.85% sodium chloride solution. The test substances are prepipetted into microtitre plates in an amount of 8 μl per well. Previously diluted organism suspensions are diluted 1:100 in CASO bouillon and added to the test substances in an amount of 192 μl per well. The test batches are incubated for 48 hours at 37° C. After incubation, the growth is determined by reference to the turbidity of the test batches (optical density) at 620 nm in a microplate reader. The minimum inhibitory concentration (MIC value) is the concentration of substance at which (compared with the growth of the control) an appreciable inhibition of the growth (≦20% growth) of the test organisms is ascertained. One microtitre plate is used for each test organism and substance concentration. All substances are tested in duplicate.

[2] = system: Corynebacterium xerosis ATCC 373; settings: ATCC373, 48 hours at 37° C., ≦20% growth
Experimental: as §1

[3] = system: Enterococcus hirae ATCC 10541; settings: ATCC10541, 48 hours at 37° C., ≦20% growth
Experimental: as §1

[4] = system: Epidermophyton floccosum DSM 10709; settings: DSM10709, 48 hours at 37° C., ≦20% growth
Experimental: as §1

[5] = system: Klebsiella pneumoniae ATCC 4352; settings: ATCC4352, 48 hours at 37° C., ≦20% growth
Experimental: as §1

[6] = system: Micrococcus luteus ATCC 9341; settings: ATCC9341, 48 hours at 37° C., ≦20% growth
Experimental: as §1

P. ovale ATCC 14521 = settings: Pityrosporum ovale, ATCC14521, 48 hours at 37° C., ≦20% growth
Experimental: as §1

[7] = system: S. epidermidis ATCC 12228; settings: Staphylococcus epidermidis, ATCC12228, 48 hours at 37° C., ≦20% growth
Experimental: as §1

[8] = system: Salmonella choleraesuis ATCC 9184; settings: Salmonella enterica, 48 hours at 37° C., ≦20% growth
Experimental: as §1

[9] = system: Streptococcus mutans ATCC 25175; settings: ATCC25175, 48 hours at 37° C., ≦20% growth
Experimental: as §1

[10] = system: Trichoderma longibrachiatum DSM 768; settings: DSM768, 48 hours at 37° C., ≦20% growth
Experimental: as §1

[11] = system: Trichophyton mentagrophytes ATCC 9533; settings: ATCC9533, 48 hours at 37° C., ≦20% growth
Experimental: as §1

[12] = system: Trichophyton rubrum DSM 4167; settings: DSM4167, 48 hours at 37° C., ≦20% growth
Experimental: as §1

With `CCCCCCCC[N+](CC)(CC)CCCNC(=O)CCc1cc(-n2nc3ccccc3n2)c(O)c(C(C)(C)C)c1.[Br-]` [compound of formula (108)] the MIC [1] was 6.25 µg/mL, the MIC [2] was 3.12 µg/mL and the MIC [3] was 3.12 µg/mL. The MIC [4] was 12.5 µg/mL, the MIC [5] was > 100 µg/mL and the MIC [6] was 3.12 µg/mL. The MIC (P. ovale ATCC 14521) was > 25 µg/mL, the MIC [7] was 3.12 µg/mL and the MIC [8] was > 100 µg/mL. For the same molecule, the MIC [9] was 3.12 µg/mL, the MIC [10] was 50 µg/mL and the MIC [11] was 100 µg/mL. It also gave an MIC [12] of 25 µg/mL.
